Laboratory results as given in the supplement of paper PMC5908809.

Key:
[1] = test system: normal NK cells expanded with K562-aAPC; experiment: drug sensitivity score (DSS) (DSS units); higher = more sensitive; extreme values may be limits of the assay; conditions: 72 h; IL-2 2.5 ng/mL
Procedure: (§1)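 Drug sensitivity and resistance testing on K562-aAPC-expanded normal NK cells: 5 concentrations (10-fold steps over a 10,000-fold range), 72 h at 37 °C, viability by CellTiter-Glo normalised to DMSO and benzethonium chloride controls; DSS from the fitted curve.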

NK-92 (IL-2 2.5 ng/mL) [2] = experiment: as above; conditions: 72 h
NK-YS (IL-2 2.5 ng/mL) [3] = experiment: as above; conditions: 72 h
IMC-1 (IL-2 20 ng/mL) [4] = experiment: as above; conditions: 72 h
DERL-7 (IL-2 2.5 ng/mL) [5] = experiment: as above; conditions: 72 h
YT (IL-2 2.5 ng/mL) [6] = experiment: as above; conditions: 72 h
SNK-6 (IL-2 2.5 ng/mL) [7] = experiment: as above; conditions: 72 h
[8] = test system: normal primary NK cells, pool 1 (3 donors), resting (IL-2 0 ng/mL); experiment: as above; conditions: 72 h
[9] = test system: normal primary NK cells, pool 3 (3 donors) (IL-2 2.5 ng/mL); experiment: as above; conditions: 72 h
[10] = test system: normal primary NK cells, pool 2 (3 donors) (IL-2 2.5 ng/mL); experiment: as above; conditions: 72 h
KHYG-1 (IL-2 2.5 ng/mL) [11] = experiment: as above; conditions: 72 h
KAI3 (IL-2 2.5 ng/mL) [12] = experiment: as above; conditions: 72 h
[13] = test system: normal primary NK cells, pool 1 (3 donors) (IL-2 2.5 ng/mL); experiment: as above; conditions: 72 h
NKL (IL-2 2.5 ng/mL) [14] = experiment: as above; conditions: 72 h
[15] = test system: normal NK cells expanded with K562-aAPC; experiment: percent inhibition of viability; higher = more inhibition; conditions: 72 h, IL-2 2.5 ng/mL
Procedure: as §1

NK-92 (IL-2 2.5 ng/mL) [16] = experiment: as above; conditions: 72 h
NK-YS (IL-2 2.5 ng/mL) [17] = experiment: as above; conditions: 72 h
IMC-1 (IL-2 20 ng/mL) [18] = experiment: as above; conditions: 72 h
DERL-7 (IL-2 2.5 ng/mL) [19] = experiment: as above; conditions: 72 h
YT (IL-2 2.5 ng/mL) [20] = experiment: as above; conditions: 72 h
SNK-6 (IL-2 2.5 ng/mL) [21] = experiment: as above; conditions: 72 h
[22] = test system: normal primary NK cells, pool 1 (3 donors), resting (IL-2 0 ng/mL); experiment: as above; conditions: 72 h
[23] = test system: normal primary NK cells, pool 3 (3 donors) (IL-2 2.5 ng/mL); experiment: as above; conditions: 72 h
[24] = test system: normal primary NK cells, pool 2 (3 donors) (IL-2 2.5 ng/mL); experiment: as above; conditions: 72 h
KHYG-1 (IL-2 2.5 ng/mL) [25] = experiment: as above; conditions: 72 h
KAI3 (IL-2 2.5 ng/mL) [26] = experiment: as above; conditions: 72 h
[27] = test system: normal primary NK cells, pool 1 (3 donors) (IL-2 2.5 ng/mL); experiment: as above; conditions: 72 h
NKL (IL-2 2.5 ng/mL) [28] = experiment: as above; conditions: 72 h

COC(=O)N[C@@H](C)CNc1nccc(-c2cn(C(C)C)nc2-c2cc(Cl)cc(NS(C)(=O)=O)c2F)n1 [Encorafenib] (max concentration tested 1000 nM)
Conditions	drug sensitivity score
DERL-7 (IL-2 2.5 ng/mL) [5]	0
IMC-1 (IL-2 20 ng/mL) [4]	0.04
KAI3 (IL-2 2.5 ng/mL) [12]	1.37
KHYG-1 (IL-2 2.5 ng/mL) [11]	16.3
NK-92 (IL-2 2.5 ng/mL) [2]	0.17
NK-YS (IL-2 2.5 ng/mL) [3]	0.52
NKL (IL-2 2.5 ng/mL) [14]	0
SNK-6 (IL-2 2.5 ng/mL) [7]	0
YT (IL-2 2.5 ng/mL) [6]	0.55
[1]	0
[8]	0
[9]	0
[10]	0
[13]	0

percent inhibition of viability [%]
Conditions	0.1 nM	1 nM	10 nM	100 nM	1000 nM
DERL-7 (IL-2 2.5 ng/mL) [19]	-4.45	1.39	-5.31	-20.4	2.89
IMC-1 (IL-2 20 ng/mL) [18]	-3.38	-1.85	-0.96	1.07	11.3
KAI3 (IL-2 2.5 ng/mL) [26]	-3.35	-4.73	-1.44	-5.19	35.6
KHYG-1 (IL-2 2.5 ng/mL) [25]	1.4	3.41	40.8	96.3	36
NK-92 (IL-2 2.5 ng/mL) [16]	3.73	-5.79	17.9	6.05	10.7
NK-YS (IL-2 2.5 ng/mL) [17]	0.75	0.97	2.64	4.64	15.7
NKL (IL-2 2.5 ng/mL) [28]	-6.88	-1.53	-12.4	-13	2.6
SNK-6 (IL-2 2.5 ng/mL) [21]	-4.51	-10	13.8	2.67	3.42
YT (IL-2 2.5 ng/mL) [20]	4.02	1.12	4.21	0.09	19.3
[15]	-0.52	-2.88	-3.45	0.31	8.45
[22]	6.42	-18.3	-10.7	-27.7	1.26
[23]	-8.13	-6.38	-2.7	-12.9	-4.56
[24]	-12.3	-6.1	-1.97	-5.14	-1.61
[27]	-4.01	-8.97	-7.94	-18.4	-8.33

COc1cccc2c1C(=O)c1c(O)c3c(c(O)c1C2=O)C[C@@](O)(/C(CO)=N/NC(=O)CCCCCN1C(=O)C=CC1=O)C[C@@H]3O[C@H]1C[C@H](N)[C@H](O)[C@H](C)O1 [Aldoxorubicin] (max concentration tested 1000 nM)
Conditions	drug sensitivity score
DERL-7 (IL-2 2.5 ng/mL) [5]	17.6
IMC-1 (IL-2 20 ng/mL) [4]	16
KAI3 (IL-2 2.5 ng/mL) [12]	14.2
KHYG-1 (IL-2 2.5 ng/mL) [11]	14.7
NK-92 (IL-2 2.5 ng/mL) [2]	12
NK-YS (IL-2 2.5 ng/mL) [3]	17
NKL (IL-2 2.5 ng/mL) [14]	28.9
SNK-6 (IL-2 2.5 ng/mL) [7]	18.9
YT (IL-2 2.5 ng/mL) [6]	13.6
[1]	11.1
[8]	12.4
[9]	9.86
[10]	11.3
[13]	9.69

percent inhibition of viability [%]
Conditions	0.1 nM	1 nM	10 nM	100 nM	1000 nM
DERL-7 (IL-2 2.5 ng/mL) [19]	-4.24	-3.44	13.3	87.3	101
IMC-1 (IL-2 20 ng/mL) [18]	-3.88	-4.51	3.18	86.5	101
KAI3 (IL-2 2.5 ng/mL) [26]	-11.1	-12.4	4.9	74.1	87
KHYG-1 (IL-2 2.5 ng/mL) [25]	-0.32	5.45	-0.18	79.9	106
NK-92 (IL-2 2.5 ng/mL) [16]	-14.3	-7.33	-3.29	53.2	104
NK-YS (IL-2 2.5 ng/mL) [17]	-4.26	-3.37	13.9	83.1	103
NKL (IL-2 2.5 ng/mL) [28]	-13.6	-5.62	92.1	103	107
SNK-6 (IL-2 2.5 ng/mL) [21]	7.67	13.7	17.1	91.1	95.2
YT (IL-2 2.5 ng/mL) [20]	3.75	-0.69	-3.82	70.5	105
[15]	0.3	4.21	5.36	47	101
[22]	-26	-23.3	-31.6	64.9	91.5
[23]	-11.3	-10.4	0.28	31.5	97.1
[24]	-13.7	-6.33	0.42	49.2	94.5
[27]	-11.9	-3.83	-12.3	29.5	97.6

CC1(C)CCC(c2ccc(Cl)cc2)=C(CN2CCN(c3ccc(C(=O)NS(=O)(=O)c4ccc(N[C@H](CCN5CCOCC5)CSc5ccccc5)c(S(=O)(=O)C(F)(F)F)c4)cc3)CC2)C1 [Navitoclax] (max concentration tested 10000 nM)
Conditions	drug sensitivity score
DERL-7 (IL-2 2.5 ng/mL) [5]	23
IMC-1 (IL-2 20 ng/mL) [4]	9.91
KAI3 (IL-2 2.5 ng/mL) [12]	42.1
KHYG-1 (IL-2 2.5 ng/mL) [11]	26.3
NK-92 (IL-2 2.5 ng/mL) [2]	18.6
NK-YS (IL-2 2.5 ng/mL) [3]	24.8
NKL (IL-2 2.5 ng/mL) [14]	29.4
SNK-6 (IL-2 2.5 ng/mL) [7]	39.8
YT (IL-2 2.5 ng/mL) [6]	26.4
[1]	11.7
[8]	36.1
[9]	19.2
[10]	24.6
[13]	25.1

percent inhibition of viability [%]
Conditions	1 nM	10 nM	100 nM	1000 nM	10000 nM
DERL-7 (IL-2 2.5 ng/mL) [19]	2	1.88	47.8	93	100
IMC-1 (IL-2 20 ng/mL) [18]	-6.88	-0.75	19.6	38.7	79.4
KAI3 (IL-2 2.5 ng/mL) [26]	19.6	80.7	102	104	97.4
KHYG-1 (IL-2 2.5 ng/mL) [25]	-3.19	-1.54	72.7	102	96.3
NK-92 (IL-2 2.5 ng/mL) [16]	-0.38	-1.7	27	83.7	95.2
NK-YS (IL-2 2.5 ng/mL) [17]	0.62	12	56.3	99.3	96.6
NKL (IL-2 2.5 ng/mL) [28]	-5.66	12.4	83.2	101	97.8
SNK-6 (IL-2 2.5 ng/mL) [21]	16.9	69.7	99	99.5	98.8
YT (IL-2 2.5 ng/mL) [20]	2.71	25.2	69.4	77.4	87.6
[15]	-0.31	-4.48	10.3	55	77
[22]	2.54	48	98.3	100	99.9
[23]	-14.4	-12.2	24.6	87.2	95.9
[24]	-16.4	3.46	56.9	95.9	99
[27]	-16.8	-9.66	60	94	99.9
